# According to paper PMC7497679, “Structure-based design, synthesis, and evaluation of the biological activity of novel phosphoroorganic small molecule IAP antagonists” (Investigational New Drugs, 2020):
# Like-named read-outs stand apart in the source and are kept apart here. Square brackets hold non-standard residues; d marks the D form. Ends that are not written are not given here. Chg = N[C@H](C(=O)O)C1CCCCC1; NMeA = CN[C@@H](C)C(=O)O
# Experiments:
# XIAP BIR3 domain = target: T1, XIAP BIR3 domain (Homo sapiens, UniProt P98170); assay: Fluorescence polarization inhibition (competition) assay; format: binding; conditions: for inhibition at 50 µM: 0.5 h, antagonist 50 µM, inhibition of protein-probe interaction; for Ki / EC50: XIAP BIR3 50 nM, fluorescent probe 4 2 nM; for interaction with the XIAP BIR3 domain (in words): fluorescence polarization
# T1 construct: fluorescent probe 4 and the XIAP BIR3 domain (Sino Biological, Beijing, China) were used for all measurements; purchased Sino Biological, Beijing, China
# T1 sequence (P98170 252-356 limits assumed): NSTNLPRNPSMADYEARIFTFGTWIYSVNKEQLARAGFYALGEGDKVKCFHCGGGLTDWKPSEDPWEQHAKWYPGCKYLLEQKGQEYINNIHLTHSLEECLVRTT
# Method: The fluorescence polarization assay was performed at r.t. in Corning 384-well black, polystyrene flat bottom plates (Corning, NY, USA) on a Synergy H4 Hybrid Reader (BioTek, Bad Friedrichshall, Germany). For fluorescence polarization measurements, (milipolarization units, mP) 484/20 nm excitation and 528/20 nm emission filters were selected. Phosphate buffer (pH 7.5) supplemented with γ-globulin (100 µg/mL) and NaN3 (0.02% w/v), fluorescent probe 4 and the XIAP BIR3 domain (Sino Biological, Beijing, China) were used for all measurements. All experiments were performed in duplicate. The obtained fluorescence polarization assay data were analyzed with Prism 5.0 Software (GraphPad Software, San Diego, ca.).
# After a 15 min incubation at r.t., fluorescent probe 4 (2 nM) was added. The values were measured 30 min after the moment the probe was added. The assay was performed in phosphate buffer with a final DMSO concentration of 1.4% (v/v). […] In order to evaluate the quality and precision of the performed screening assay, we determined the Z´ factor as described by Zhang et al.. The obtained fluorescence polarization values were used to determine the percent inhibition, which was plotted as a function of the protein concentration. The EC50 and Ki values were calculated with GraphPad software (log(agonist) vs. response (variable slope) model) in combination with the web tool developed by Nikolovska-Coleska et al..
# Fluorescence polarization inhibition assay and data analysis for 41m and 42m compounds was performed as described in the Material and Methods section of the manuscript. Briefly, 50 nM solution of the BIR3 XIAP protein in polarization buffer was added into phosphoroorganic compound solution (from 50 μM to 0.0537 nM). After 15 min incubation at r.t. the fluorescent probe 4 (2 nM) was added.
# The values were read after 30 minutes from the moment the probe was added. The obtained fluorescence polarization values were used to determine the percentage of inhibition which was plotted as a function of the protein concentration (Supplementary Figure S4).
# (1 picture or pasted object on this page, not shown here)
# A549 = assay: Antiproliferative activity, SRB method; format: cell-based, human; conditions: Homo sapiens, A549, 10 µM, 72 h, read-out: mean proliferation inhibition at highest concentration used, A549
# Excerpt: (§1) MDA-MB-231 (human breast cancer), MCF10A (human, nontumorigenic mammary gland epithelial cells), A549 (human nonsmall-cell lung cancer), UMUC-3 (human bladder cancer) and LoVo (human colon cancer) cell lines were obtained from the American Type Culture Collection (ATCC; Rockville, Maryland, USA). The MCF-7 cell line (human breast cancer) was obtained from the European Collection of Cell Cultures (ECACC; Salisbury, UK). All cell lines were maintained at the Hirszfeld Institute of Immunology and Experimental Therapy (HIIET), Wrocław, Poland. MDA-MB-231 cells were cultured in RPMI1640 medium (Thermo Fisher Scientific, Warszawa, Poland) supplemented with 2 mM L-glutamine, 1 mM sodium pyruvate, and 10% fetal bovine serum (all from Sigma-Aldrich, Poznań, Poland). The MCF10A cell line was cultured in Ham’s F12 medium with glutamine (Corning) supplemented with 5% (v/v) fetal bovine serum (FBS), 5% (v/v) horse serum, 10 µg/mL insulin, 0.05 µg/mL cholera toxin, 0.5 µg/mL hydrocortisone, and 20 ng/mL hEGF (all from Sigma-Aldrich). A549 and LoVo cells were cultured in a 1:1 (v/v) mixture of RPMI1640 and Opti-MEM (both from HIIET) supplemented with 5% (v/v) FBS and 2 mM L-glutamine. The UMUC-3 cell line was cultured in high glucose DMEM (Thermo Fisher Scientific) supplemented with 10% FBS and 2 mM Lglutamine. The MCF-7 line was cultured in Eagle’s minimal essential medium (EMEM; Thermo Fisher Scientific) supplemented with 10% (v/v) FBS, 2 mM L-glutamine, 1% (v/v) nonessential amino acids, and 8 µg/mL insulin (all from Sigma-Aldrich). All culture media contained 100 µg/mL streptomycin (Sigma-Aldrich) and 100 U/mL penicillin (Polfa Tarchomin SA, Warszawa, Poland). The cells were grown at 37 °C in a humid atmosphere saturated with 5% CO2.
# (§2) Antiproliferative activity was assessed in six cell lines utilizing the sulforhodamine B (SRB) method. Briefly, cells were seeded in 96-well plates (Sarstedt, Warszawa, Poland) at a density of 5 × 10^3 cells/well, and after overnight incubation, the cells were exposed to compounds at various concentrations. After 72 h, the plates were fixed with 50% (v/v) TCA (all from Sigma-Aldrich), washed with tap water, and the precipitated proteins were labeled with 0.1% (w/v) SRB solution in 1% (v/v) AcOH. Next, the plates were washed with 1% (v/v) AcOH, and the remaining SRB dye was solubilized with 10 mM unbuffered TRIS solution. The absorbance was measured using a Biotek Hybrid H4 reader (BioTek Instruments, VT, USA) at 540 nm. Crude results were analyzed using a previously described method, and the results are expressed as the IC50 (compound concentration that reduced cell growth by 50%) compared to the vehicletreated control (0.1% (v/v) DMSO). The samples were analyzed in triplicate, and each experiment was repeated at least three times.
# LoVo = assay: Antiproliferative activity, SRB method; format: cell-based, human; conditions: Homo sapiens, LoVo, 10 µM, 72 h, read-out: mean proliferation inhibition at highest concentration used, LoVo
# Excerpt: as §1, §2
# MCF-10A = assay: Antiproliferative activity, SRB method; format: cell-based, human; conditions: Homo sapiens, MCF-10A, 10 µM, 72 h, read-out: mean proliferation inhibition at highest concentration used, MCF-10A
# Excerpt: as §1, §2
# MCF-7 = assay: Antiproliferative activity, SRB method; format: cell-based, human; conditions: Homo sapiens, MCF7, 10 µM, 72 h, read-out: mean proliferation inhibition at highest concentration used, MCF-7
# Excerpt: as §1, §2
# MDA-MB-231 = assay: Antiproliferative activity, SRB method; format: cell-based, human; conditions: Homo sapiens, MDA-MB-231, 72 h, read-out: IC50 ± SD (n = 3) MDA-MB-231
# Excerpt: as §1, §2
# UMUC-3 = assay: Antiproliferative activity, SRB method; format: cell-based, human; conditions: Homo sapiens, UMUC3, 10 µM, 72 h, read-out: mean proliferation inhibition at highest concentration used, UMUC-3
# Excerpt: as §1, §2
Compound,inhibition at 50 µM (XIAP BIR3 domain),Ki (XIAP BIR3 domain),EC50 (XIAP BIR3 domain; read-out: EC50),EC50 (XIAP BIR3 domain; read-out: log EC50 (converted)),other results
CN[C@@H](C)C(=O)N[C@H](C(=O)N1CCC[C@H]1C(=O)NC(CC(C)C)P(=O)(Oc1ccccc1)Oc1ccccc1)C(C)C (stereo partly shown) [Compound 37],67.4%,14 µM,28.1 µM,28.1 µM,
CN[C@@H](C)C(=O)N[C@H](C(=O)N1CCC[C@H]1C(=O)NC(CC(C)C)P(=O)(Oc1ccccc1)Oc1ccccc1)C1CCCCC1 (stereo partly shown) [Compound 38],84.2%,5.25 µM,10.6 µM,10.6 µM,
CN[C@@H](C)C(=O)N[C@H](C(=O)N1CCC[C@H]1C(=O)NC(CCSC)P(=O)(Oc1ccccc1)Oc1ccccc1)C(C)C (stereo partly shown) [Compound 39],65.8%,13 µM,26.2 µM,26.2 µM,
"CN[C@@H](C)C(=O)N[C@H](C(=O)N1CCC[C@H]1C(=O)NC(CCSC)P(=O)(Oc1ccccc1)Oc1ccccc1)C1CCCCC1 (stereo partly drawn) [Compound 40, diphenyl (1-((S)-1-((S)-2-cyclohexyl-2-((S)-2-(methylamino)propanamido)acetyl)pyrrolidine-2-carboxamido)-3-(methylthio)propyl)phosphonate]",73.8%,13 µM,26.3 µM,26.3 µM,
CN[C@@H](C)C(=O)N[C@H](C(=O)N1CCC[C@H]1C(=O)NC(CCc1ccccc1)P(=O)(Oc1ccccc1)Oc1ccccc1)C(C)C (stereo partly shown) [Compound 43],85.4%,,17.2 µM,17.2 µM,
"CN[C@@H](C)C(=O)N[C@H](C(=O)N1CCC[C@H]1C(=O)NC(CCc1ccccc1)P(=O)(Oc1ccccc1)Oc1ccccc1)C1CCCCC1 (stereo partly drawn) [Compound 44, diphenyl (1-((S)-1-((S)-2-cyclohexyl-2-((S)-2-(methylamino)propanamido)acetyl)pyrrolidine-2-carboxamido)-3-phenylpropyl)phosphonate]",86.5%,7.57 µM,15.3 µM,15.3 µM,
"CN[C@@H](C)C(=O)N[C@H](C(=O)N1CCC[C@H]1c1nc(C(=O)c2ccc(F)cc2)cs1)C1CCCCC1 [LCL-161, reference compound]",,,,,inhibition at 10 µM (A549): 11%; inhibition at 10 µM (LoVo): 26%; inhibition at 10 µM (MCF-10A): 2%; inhibition at 10 µM (MCF-7): 19%; IC50 (MDA-MB-231): 0.76 ± 0.23 µM; inhibition at 10 µM (UMUC-3): 16%
[NMeA]-Val-Pro-OH [Compound 1],,,,,interaction with the XIAP BIR3 domain (in words) (XIAP BIR3 domain): did not interact with the XIAP BIR3 domain at a significant level
[NMeA]-[Chg]-Pro-OH [Compound 2],,,,,interaction with the XIAP BIR3 domain (in words) (XIAP BIR3 domain): did not interact with the XIAP BIR3 domain at a significant level
